The values that follow come from patent US10844032B2, “Substituted benzofuran, benzothiophene and indole Mcl-1 inhibitors” (Vanderbilt University, priority 2012, dated 2020).

In the assay the target is recombinant Mcl-1 (residues 172-327) (Homo sapiens (Human), UniProt Q07820). The assay can be described thus: Bak peptide fluorescence polarization anisotropy competition assay, Mcl-1. Format: binding. Particulars: read-out: Ki for inhibition of Mcl-1.
The mark [1] stands for this setting: Table 2, Ki range, FITC-Bak peptide 10 nM, Mcl-1 14 nM.

SMILES strings stand for the structures. Like-named read-outs stand apart in the source and are kept apart here.

recombinant Mcl-1 (residues 172-327), sequence (Q07820 172-327): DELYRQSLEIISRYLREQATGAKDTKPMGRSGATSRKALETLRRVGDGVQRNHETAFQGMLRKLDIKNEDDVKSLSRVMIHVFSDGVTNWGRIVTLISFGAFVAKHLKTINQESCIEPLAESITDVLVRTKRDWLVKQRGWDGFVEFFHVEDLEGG

In the case of `Cc1cc2nccn2cc1-c1cccc2c(CCCOc3cc(C)c(Cl)c(C)c3)c(C(=O)NS(=O)(=O)c3ccccc3)[nH]c12` [Example 299, 3-(3-(4-chloro-3,5-dimethylphenoxy)propyl)-7-(7-methylimidazo[1,2-a]pyridin-6-yl)-N-(phenylsulfonyl)-1H-indole-2-carboxamide], the inhibition constant (Ki) under setting [1] was ≤ 0.1 µM.
Turning to `Cc1cc(OCCCc2c(C(=O)NS(=O)(=O)CCNC(=O)c3cccn3Cc3cccc(F)c3)[nH]c3cc(Cl)ccc23)cc(C)c1Cl` [Example 246, 6-chloro-3-(3-(4-chloro-3,5-dimethylphenoxy)propyl)-N-((2-(1-(3-fluorobenzyl)-1H-pyrrole-2-carboxamido)ethyl)sulfonyl)-1H-indole-2-carboxamide], the inhibition constant (Ki) is 0.101 to 0.299 µM.
The same measure, in the same setting: for `CS(=O)(=O)NC(=O)c1[nH]c2cc(Cl)ccc2c1CCCOc1ccc(Cl)c(Cl)c1` [Example 105, 6-chloro-3-(3-(3,4-dichlorophenoxy)propyl)-N-(methylsulfonyl)-1H-indole-2-carboxamide] the value was 1 to 9.99 µM; for `Cc1cccc(S(=O)(=O)NC(=O)c2[nH]c3cc(Cl)ccc3c2CCCOc2cc(C)c(Cl)c(C)c2)c1` [Example 217, 6-chloro-3-(3-(4-chloro-3,5-dimethylphenoxy)propyl)-N-(m-tolylsulfonyl)-1H-indole-2-carboxamide], 0.101 to 0.299 µM.
Take `Cc1cc(OCCCc2c(C(=O)NS(=O)(=O)c3ccccc3)[nH]c3c(-c4cnccc4C(F)(F)F)cccc23)cc(C)c1Cl` [Example 103, 3-(3-(4-chloro-3,5-dimethylphenoxy)propyl)-N-(phenylsulfonyl)-7-(4-(trifluoromethyl)pyridin-3-yl)-1H-indole-2-carboxamide]: the Ki under setting [1] is ≤ 0.1 µM.
On to `Cc1cc(OCCCc2c(C(=O)NS(C)(=O)=O)[nH]c3cccc(C)c23)cc(C)c1Cl` [Example 116, 3-(3-(4-chloro-3,5-dimethylphenoxy)propyl)-4-methyl-N-(methylsulfonyl)-1H-indole-2-carboxamide], for which the Ki under setting [1] was ≤ 0.1 µM.
As to `Cc1cc(OCCCc2c(C(=O)NS(C)(=O)=O)[nH]c3cc(Cl)ccc23)cc(C)c1Cl` [Example 54, 6-chloro-3-(3-(4-chloro-3,5-dimethylphenoxy)propyl)-N-(methylsulfonyl)-1H-indole-2-carboxamide], the Ki was in the range of 0.101 to 0.299 µM.
Same read-out and setting: then `CS(=O)(=O)NC(=O)c1[nH]c2ccccc2c1CCCOc1cccc2ccccc12` [Example 19, N-(methylsulfonyl)-3-(3-(naphthalen-1-yloxy)propyl)-1H-indole-2-carboxamide], with 1 to 9.99 µM.
For `Cc1cc(OCCCc2c(C(=O)NS(=O)(=O)CCNC(=O)c3ccco3)[nH]c3ccccc23)cc(C)c1Cl` [Example 171, 3-(3-(4-chloro-3,5-dimethylphenoxy)propyl)-N-((2-(furan-2-carboxamido)ethyl)sulfonyl)-1H-indole-2-carboxamide], the inhibitory constant (Ki) was 0.101 to 0.299 µM.
On the same count and under the same terms, for `Cc1cc(OCCCc2c(C(=O)NS(=O)(=O)CCNC(=O)c3ccccc3)[nH]c3ccccc23)cc(C)c1Cl` [Example 161, N-((2-benzamidoethyl)sulfonyl)-3-(3-(4-chloro-3,5-dimethylphenoxy)propyl)-1H-indole-2-carboxamide] the value was 0.301 to 0.5 µM; for `O=C(NCCS(=O)(=O)NC(=O)c1[nH]c2cc(Cl)ccc2c1CCCOc1cccc2ccccc12)c1ccc2cc[nH]c2c1` [Example 239, N-((2-(1H-indole-6-carboxamido)ethyl)sulfonyl)-6-chloro-3-(3-(naphthalen-1-yloxy)propyl)-1H-indole-2-carboxamide], 0.301 to 0.5 µM.
On the same count and under the same terms, for `CS(=O)(=O)NC(=O)c1[nH]c2ccccc2c1CCCOc1ccc2c(c1)CCCC2` [Example 38, N-(methylsulfonyl)-3-(3-((5,6,7,8-tetrahydronaphthalen-2-yl)oxy)propyl)-1H-indole-2-carboxamide] the value was 1 to 9.99 µM.
For the compound `Cc1cc(OCCCc2c(C(=O)NS(=O)(=O)c3ccccc3)[nH]c3c(-c4c(CO)nn(C)c4C)cccc23)cc(C)c1Cl` [Example 127, 3-(3-(4-chloro-3,5-dimethylphenoxy)propyl)-7-(3-(hydroxymethyl)-1,5-dimethyl-1H-pyrazol-4-yl)-N-(phenylsulfonyl)-1H-indole-2-carboxamide], the Ki under setting [1] was ≤ 0.1 µM.
As for `Cc1cc(OCCCc2c(C(=O)NS(=O)(=O)CCNC(=O)c3cc(C)n(C4CC4)c3C)[nH]c3ccccc23)cc(C)c1Cl` [Example 193, 3-(3-(4-chloro-3,5-dimethylphenoxy)propyl)-N-((2-(1-cyclopropyl-2,5-dimethyl-1H-pyrrole-3-carboxamido)ethyl)sulfonyl)-1H-indole-2-carboxamide], the Ki lay within 0.101 to 0.299 µM.
On the same count and under the same terms, then `Cc1cc(OCCCc2c(C(=O)NS(=O)(=O)CCNC(=O)c3cccc(-c4ccccc4)c3)[nH]c3ccccc23)cc(C)c1Cl` [Example 165, N-((2-([1,1′-biphenyl]-3-ylcarboxamido)ethyl)sulfonyl)-3-(3-(4-chloro-3,5-dimethylphenoxy)propyl)-1H-indole-2-carboxamide], with 0.301 to 0.5 µM; and `Cc1cc(OCCCc2c(C(=O)NS(=O)(=O)CCCN3C(=O)c4ccccc4C3=O)[nH]c3cc(Cl)ccc23)cc(C)c1Cl` [Example 256, 6-chloro-3-(3-(4-chloro-3,5-dimethylphenoxy)propyl)-N-((3-(1,3-dioxoisoindolin-2-yl)propyl)sulfonyl)-1H-indole-2-carboxamide], with 0.501 to 0.999 µM; and `CS(=O)(=O)NC(=O)c1[nH]c2ccccc2c1CCCOc1ccccc1` [Example 30, N-(methylsulfonyl)-3-(3-phenoxypropyl)-1H-indole-2-carboxamide], with 10 to 50 µM.
Turning to `Cc1cc(OCCCc2c(C(=O)NS(=O)(=O)CCNC(=O)c3c[nH]cn3)[nH]c3ccccc23)cc(C)c1Cl` [Example 186, N-((2-(1H-imidazole-4-carboxamido)ethyl)sulfonyl)-3-(3-(4-chloro-3,5-dimethylphenoxy)propyl)-1H-indole-2-carboxamide], the inhibition constant (Ki) is 1 to 9.99 µM.
As for `Cc1cc(OCCCc2c(C(=O)NS(=O)(=O)CCNC(=O)c3cccn3C)[nH]c3cc(Cl)ccc23)cc(C)c1Cl` [Example 233, 6-chloro-3-(3-(4-chloro-3,5-dimethylphenoxy)propyl)-N-((2-(1-methyl-1H-pyrrole-2-carboxamido)ethyl)sulfonyl)-1H-indole-2-carboxamide], the Ki under setting [1] was ≤ 0.1 µM.
In the case of `O=C(NS(=O)(=O)CCNC(=O)C1CCCCC1)c1[nH]c2cc(Cl)ccc2c1CCCOc1cccc2ccccc12` [Example 228, 6-chloro-N-((2-(cyclohexanecarboxamido)ethyl)sulfonyl)-3-(3-(naphthalen-1-yloxy)propyl)-1H-indole-2-carboxamide], the Ki fell in the range of 0.301 to 0.5 µM.
In the case of `Cc1cc(OCCCc2c(C(=O)NS(=O)(=O)CCNC(=O)C34CC5CC(CC(C5)C3)C4)[nH]c3ccccc23)cc(C)c1Cl` [Example 180, N-((2-((3r,5r,7r)-adamantane-1-carboxamido)ethyl)sulfonyl)-3-(3-(4-chloro-3,5-dimethylphenoxy)propyl)-1H-indole-2-carboxamide], the Ki was 0.101 to 0.299 µM.
For the compound `Cc1cc(OCCCc2c(C(=O)NS(=O)(=O)Cc3ccccc3)sc3ccccc23)cc(C)c1Cl` [Example 70, N-(benzylsulfonyl)-3-(3-(4-chloro-3,5-dimethylphenoxy)propyl)benzo[b]thiophene-2-carboxamide], the Ki is 0.501 to 0.999 µM.
As to `Cc1cc(OCCCc2c(C(=O)NS(=O)(=O)c3ccccc3)[nH]c3c(-c4ccnn4C)cccc23)cc(C)c1Cl` [Example 100, 3-(3-(4-chloro-3,5-dimethylphenoxy)propyl)-7-(1-methyl-1H-pyrazol-5-yl)-N-(phenylsulfonyl)-1H-indole-2-carboxamide], the Ki under setting [1] is ≤ 0.1 µM.
Turning to `Cc1cc(OCCCc2c(C(=O)NS(=O)(=O)CCNC(=O)c3ccc4c(ccn4C)c3)[nH]c3cc(Cl)ccc23)cc(C)c1Cl` [Example 236, 6-chloro-3-(3-(4-chloro-3,5-dimethylphenoxy)propyl)-N-((2-(1-methyl-1H-indole-5-carboxamido)ethyl)sulfonyl)-1H-indole-2-carboxamide], the Ki lay within 0.101 to 0.299 µM.
Regarding `Cc1cc(OCCCc2c(C(=O)NS(=O)(=O)c3ccc(C(=O)O)o3)[nH]c3cc(Cl)ccc23)cc(C)c1Cl` [Example 261], under setting [1], the Ki was ≤ 0.1 µM.
Turning to `Cc1cc(OCCCc2c(C(=O)NS(=O)(=O)CCNC(=O)c3cc(C)n(C)c3C)[nH]c3ccccc23)cc(C)c1Cl` [Example 192, 3-(3-(4-chloro-3,5-dimethylphenoxy)propyl)-N-((2-(1,2,5-trimethyl-1H-pyrrole-3-carboxamido)ethyl)sulfonyl)-1H-indole-2-carboxamide], the inhibition constant Ki lay in the range of 0.301 to 0.5 µM.
`Cc1cc(C(=O)NCCS(=O)(=O)NC(=O)c2[nH]c3ccccc3c2CCCOc2cc(C)c(Cl)c(C)c2)c(C)o1` [Example 159, 3-(3-(4-chloro-3,5-dimethylphenoxy)propyl)-N-((2-(2,5-dimethylfuran-3-carboxamido)ethyl)sulfonyl)-1H-indole-2-carboxamide]: the Ki is 0.101 to 0.299 µM.
For `O=C(O)c1sc2ccccc2c1CCCc1cccc2ccccc12` [Example 63, 3-(3-(naphthalen-1-yl)propyl)benzo[b]thiophene-2-carboxylic acid], the Ki was 1 to 9.99 µM.
For `Cc1cc(OCCCc2c(C(=O)NS(=O)(=O)C3CC3)sc3ccccc23)cc(C)c1Cl` [Example 69, 3-(3-(4-chloro-3,5-dimethylphenoxy)propyl)-N-(cyclopropylsulfonyl)benzo[b]thiophene-2-carboxamide], the Ki fell in the range of 1 to 9.99 µM.
As to `Cc1cc(OCCCc2c(C(=O)NS(C)(=O)=O)[nH]c3ccccc23)ccc1Cl` [Example 20, 3-(3-(4-chloro-3-methylphenoxy)propyl)-N-(methylsulfonyl)-1H-indole-2-carboxamide], the Ki lay within 0.301 to 0.5 µM.
The same measure, in the same setting: then `COc1ccc(S(=O)(=O)NC(=O)c2[nH]c3ccccc3c2CCCOc2cc(C)c(Cl)c(C)c2)c(OC)c1` [Example 138, 3-(3-(4-chloro-3,5-dimethylphenoxy)propyl)-N-((2,4-dimethoxyphenyl)sulfonyl)-1H-indole-2-carboxamide], with 0.301 to 0.5 µM.
